Inhibition data for 16 compounds are collected here from patent US9676760B2, “Fused heterocyclic compounds as ion channel modulators” (Gilead Sciences, Inc., priority 2011, dated 2017).

For test [1], the target named is T1, wild-type human cardiac sodium channel, hNav1.5 (Homo sapiens, UniProt Q14524). Nature of the test: Late INa screening assay (QPatch whole cell patch clamp, HEK293). Type of test: cell-based. As to conditions: HEK293, percent block of late INa; compound at 1 μM; 10 μM Tefluthrin; read-out: Late INa 1 μM. The method in brief:
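HEK293 stably expressing hNav1.5 without beta subunits, recorded at 23-25° C. Late current was induced by 10 μM tefluthrin. Cells were depolarized from −120 mV to −20 mV for 250 ms at 0.1 Hz. Compounds were tested at 1 μM in extracellular solution, with baseline taken in 0Na-ECF; output is percent block of late INa.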
(In general: In patch-clamp work, channel activity is measured electrically.)

Test [2] concerns the target T1, wild-type human cardiac sodium channel, hNav1.5. Put plainly: Peak INa screening assay (tonic and use-dependent block). Type of test: cell-based. As to conditions: compound at 1 μM. As for the experimental part: The late sodium current (Late INa) and peak sodium current (Peak INa) assays are performed on an automated electrophysiology platform, QPatch 16× (Sophion Bioscience, Copenhagen, Denmark), which uses the whole cell patch clamp technique to measure currents through the cell membrane of up to 16 cells at a time. The assay uses an HEK293 (human embryonic kidney) cell line heterologously expressing the wild-type human cardiac sodium channel, hNav1.5, purchased from Millipore (Billerica, Mass.). No beta subunits were coexpressed with the Na channel alpha subunit. Cells are maintained with standard tissue culture procedures and stable channel expression is maintained with 400 μg/mL Geneticin in the culture medium. Cells isolated for use on QPatch are incubated for 5 minutes in Detachin 1×(Genlantis, San Diego, USA) at 37° C. to ensure that 80-90% of the cells are single and not part of a cell cluster. Experiments are carried out at 23-25° C.
For both the Late INa and Peak INa assays, series resistance compensation is set to 100% and series resistance and whole-cell compensation are performed automatically. Currents are digitized at 25 kHz and low-pass filtered at 12 kHz and 10 kHz for the late and peak INa assays, respectively. Currents through open sodium channels are automatically recorded and stored in the Sophion Bioscience Oracle database (Sophion Bioscience, Copenhagen, Denmark). Analysis is performed using QPatch Assay and database software and data are compiled in Excel.
Compound stocks are routinely made by the Gilead Sample Bank in plastic vials to 10 mM in dimethyl sulfoxide (DMSO). In some cases, when compounds are not soluble in DMSO, they are made in 100% ethanol. Stocks are sonicated as necessary. The extracellular solution for screening Late INa is composed of: 140 mM NaCl, 4 mM KCl, 1.8 mM CaCl2, 0.75 mM MgCl2 and 5 mM HEPES with pH adjusted to 7.4 using NaOH. The intracellular solution used to perfuse the inside of the cells for both the Late INa and Peak INa assays contains: 120 mM CsF, 20 mM CsCl, 5 mM EGTA, 5 mM HEPES and pH adjusted to 7.4 with CsOH. Compounds are diluted in extracellular solution to 1 μM in glass vials and then transferred to glass well plates before robotic addition to the cells. The 0 mM Na extracellular solution (0Na-ECF) used at the end of each experiment for the Late INa and Peak INa assays to measure baseline current contains: 140 mM N-methyl-D-glucamine; 4 mM KCl; 1.8 mM CaCl2; 0.75 mM MgCl2; 5 mM HEPES and pH was adjusted to 7.4 with HCl.
Compounds were also evaluated for their effect in several other assays, including their effect on Peak INa. […] Since the peak INa in the cells used herein can be very large, introducing artifacts in the recording, the concentration of Na^+ in the bath can be reduced to 20 mM and a nonpermeant cation added to compensate for the Na^+ that was removed to maintain the osmolarity and ionic strength of the solution (see solution details below).
A low stimulation frequency of 0.1 Hz was used to determine the effect of the test compound when the channel spent most of the time in the resting (closed) state and provides information about Tonic Block (TB). A higher stimulation frequency (3 Hz) was used to measure block of the channel when it spent more time in the activated and inactivated states and provided a measure of Use-Dependent Block (UDB). Use-dependent block refers to the accumulation of block with increased frequency of channel activation.

Where [3] appears, read: tonic block of peak INa, 0.1 Hz, read-out: Peak TB 1 μM.
Where [4] appears, read: use-dependent block of peak INa, 3 Hz, read-out: Peak UDB 1 μM.

T1 sequence (Q14524 whole entry): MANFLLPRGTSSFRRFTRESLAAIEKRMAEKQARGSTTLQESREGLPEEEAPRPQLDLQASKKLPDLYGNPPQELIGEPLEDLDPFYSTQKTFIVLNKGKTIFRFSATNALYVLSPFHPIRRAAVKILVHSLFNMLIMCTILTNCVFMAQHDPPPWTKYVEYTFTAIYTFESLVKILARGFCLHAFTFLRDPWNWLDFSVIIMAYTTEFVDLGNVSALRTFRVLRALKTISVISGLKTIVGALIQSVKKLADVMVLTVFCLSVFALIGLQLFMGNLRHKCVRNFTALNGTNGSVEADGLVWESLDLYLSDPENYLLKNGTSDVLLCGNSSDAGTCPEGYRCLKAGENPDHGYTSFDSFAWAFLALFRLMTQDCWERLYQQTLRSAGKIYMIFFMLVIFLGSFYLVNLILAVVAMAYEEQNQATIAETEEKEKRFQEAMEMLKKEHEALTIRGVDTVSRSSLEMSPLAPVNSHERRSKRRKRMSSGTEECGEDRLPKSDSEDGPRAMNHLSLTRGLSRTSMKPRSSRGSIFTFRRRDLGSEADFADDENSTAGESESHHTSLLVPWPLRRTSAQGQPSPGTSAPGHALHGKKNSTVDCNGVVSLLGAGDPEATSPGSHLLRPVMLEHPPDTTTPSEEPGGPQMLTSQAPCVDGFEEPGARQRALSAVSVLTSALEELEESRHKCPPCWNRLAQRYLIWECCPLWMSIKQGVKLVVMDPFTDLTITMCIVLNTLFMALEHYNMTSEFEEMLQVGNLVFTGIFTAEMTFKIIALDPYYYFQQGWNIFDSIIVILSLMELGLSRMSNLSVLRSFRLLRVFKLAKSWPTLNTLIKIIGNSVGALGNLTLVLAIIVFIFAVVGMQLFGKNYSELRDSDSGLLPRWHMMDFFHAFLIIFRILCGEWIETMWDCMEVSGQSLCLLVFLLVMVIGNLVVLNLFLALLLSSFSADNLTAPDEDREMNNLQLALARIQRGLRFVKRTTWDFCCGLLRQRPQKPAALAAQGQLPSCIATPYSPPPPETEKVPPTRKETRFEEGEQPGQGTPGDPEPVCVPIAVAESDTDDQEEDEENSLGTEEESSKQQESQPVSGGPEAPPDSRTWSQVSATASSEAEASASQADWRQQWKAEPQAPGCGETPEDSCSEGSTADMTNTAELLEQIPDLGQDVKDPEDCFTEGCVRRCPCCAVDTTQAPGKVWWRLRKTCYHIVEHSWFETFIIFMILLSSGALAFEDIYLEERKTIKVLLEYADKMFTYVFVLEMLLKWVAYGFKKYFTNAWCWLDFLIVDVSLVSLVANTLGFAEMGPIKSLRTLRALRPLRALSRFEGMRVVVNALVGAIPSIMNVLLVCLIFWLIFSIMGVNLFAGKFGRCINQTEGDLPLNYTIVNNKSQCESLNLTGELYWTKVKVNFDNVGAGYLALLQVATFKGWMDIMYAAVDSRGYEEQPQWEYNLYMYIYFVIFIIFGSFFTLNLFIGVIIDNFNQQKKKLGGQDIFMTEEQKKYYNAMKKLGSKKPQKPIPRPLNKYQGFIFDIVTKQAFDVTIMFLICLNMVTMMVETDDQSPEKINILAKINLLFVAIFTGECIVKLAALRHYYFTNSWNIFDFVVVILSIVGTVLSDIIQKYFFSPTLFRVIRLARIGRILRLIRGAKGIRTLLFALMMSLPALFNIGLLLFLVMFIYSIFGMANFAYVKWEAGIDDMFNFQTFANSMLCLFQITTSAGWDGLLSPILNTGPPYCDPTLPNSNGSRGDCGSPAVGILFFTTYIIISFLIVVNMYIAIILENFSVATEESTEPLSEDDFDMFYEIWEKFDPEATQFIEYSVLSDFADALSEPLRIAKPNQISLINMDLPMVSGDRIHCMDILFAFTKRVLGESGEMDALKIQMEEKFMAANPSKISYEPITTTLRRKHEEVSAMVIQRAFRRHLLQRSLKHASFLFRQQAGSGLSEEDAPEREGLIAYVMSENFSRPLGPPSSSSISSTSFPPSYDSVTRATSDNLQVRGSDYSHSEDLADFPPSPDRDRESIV

Consider `O=C1c2cc(-c3ccc(OC(F)(F)F)cc3)ccc2OCCN1Cc1ccccn1` [II-72, 4-(pyridin-2-ylmethyl)-7-(4-(trifluoromethoxy)phenyl)-3,4-dihydrobenzo[f][1,4]oxazepin-5(2H)-one], for which the inhibition at 1 µM was 60% in test [1], 22% in test [2] (setting [3]) and 34% in test [2] (setting [4]).
The like results for `O=C1c2cc(Nc3ccc(OC(F)(F)F)cc3)ccc2OCCN1Cc1ccccn1` [XIII-4, 4-(pyridin-2-ylmethyl)-7-(4-(trifluoromethoxy)phenylamino)-3,4-dihydrobenzo[f][1,4]oxazepin-5(2H)-one] were, in that order, 51%, 8% and 9%.
Taken in the same sequence, the figures for `O=C1c2cc(-c3ccc(OC(F)(F)F)cc3)ncc2OCCN1Cc1ncccc1F` [XII-11, 4-((3-fluoropyridin-2-yl)methyl)-7-(4-(trifluoromethoxy)phenyl)-3,4-dihydropyrido[4,3-f][1,4]oxazepin-5(2H)-one] were 55%, 25% and 24%.
The like results for `O=C1c2cc(-c3ccc(OC(F)(F)F)cc3)ccc2OCCN1Cc1c(F)cccc1F` [II-49, 4-(2,6-difluorobenzyl)-7-(4-(trifluoromethoxy)phenyl)-3,4-dihydrobenzo[f][1,4]oxazepin-5(2H)-one] were, in that order, 63%, 28% and 44%.
In the case of `O=C1c2cc(-c3ccc(OC(F)(F)F)cc3)c(F)cc2OCCN1Cc1ccccc1` [II-167, 4-benzyl-8-fluoro-7-(4-(trifluoromethoxy)phenyl)-3,4-dihydrobenzo[f][1,4]oxazepin-5(2H)-one], the inhibition at 1 µM in test [1] was 56%; in test [2] (setting [3]), 20%; in test [2] (setting [4]), 25%.
Turning to `O=C1c2cc(-c3ccc(OC(F)(F)F)cc3)ccc2OCCN1Cc1c(Cl)cccc1Cl` [II-48, 4-(2,6-dichlorobenzyl)-7-(4-(trifluoromethoxy)phenyl)-3,4-dihydrobenzo[f][1,4]oxazepin-5(2H)-one], the inhibition at 1 µM in test [1] is 47%; in test [2] (setting [3]), 13%; in test [2] (setting [4]), 53%.
Regarding `Cc1cnc(CN2CCOc3ccc(-c4ccc(OC(F)(F)F)cc4)cc3C2=O)o1` [II-33, 4-((5-methyloxazol-2-yl)methyl)-7-(4-(trifluoromethoxy)phenyl)-3,4-dihydrobenzo[f][1,4]oxazepin-5(2H)-one], the inhibition at 1 µM came to 46% in test [1], 10% in test [2] (setting [3]) and 13% in test [2] (setting [4]).
Taken in the same sequence, the figures for `CN1C(=O)CN(Cc2ccccc2)C(=O)c2cc(-c3ccc(C(F)(F)F)cc3)ccc21` [Compound X-11, 4-benzyl-1-methyl-7-(4-(trifluoromethyl)phenyl)-3,4-dihydro-1H-benzo[e][1,4]diazepine-2,5-dione] were 48%, 17% and 20%.
Take `O=C1c2nc(-c3ccc(C(F)(F)F)cc3)ccc2OCCN1Cc1ccccc1` [XII-3, 4-benzyl-7-(4-(trifluoromethyl)phenyl)-3,4-dihydropyrido[2,3-f][1,4]oxazepin-5(2H)-one]: the results for the inhibition at 1 µM in test [1], in test [2] (setting [3]) and in test [2] (setting [4]) were 44%, 51% and 79%, respectively.
The like results for `O=C1c2cc(-c3ccc(C(F)(F)F)cc3)c(F)cc2OCCN1Cc1ccccc1` [II-168, 4-benzyl-8-fluoro-7-(4-(trifluoromethyl)phenyl)-3,4-dihydrobenzo[f][1,4]oxazepin-5(2H)-one] were, in that order, 44%, 36% and 47%.
Taken in the same sequence, the figures for `O=C1c2cc(-c3ccc(Cl)c(F)c3)ccc2OCCN1Cc1ncccc1F` [II-169, 7-(4-chloro-3-fluorophenyl)-4-((3-fluoropyridin-2-yl)methyl)-3,4-dihydrobenzo[f][1,4]oxazepin-5(2H)-one] were 65%, 23% and 23%.
On to `O=C(Cc1ccccn1)N1CCOc2ccc(-c3ccc(C(F)(F)F)cc3)cc2C1` [III-29, 2-(pyridin-2-yl)-1-(7-(4-(trifluoromethyl)phenyl)-2,3-dihydrobenzo[f][1,4]oxazepin-4(5H)-yl)ethanone], for which the inhibition at 1 µM in test [1] was found to be 48%; in test [2] (setting [3]), 11%; in test [2] (setting [4]) it was 14%.
Taken in the same sequence, the figures for `O=C1c2cc(-c3ccc(C(F)(F)F)cc3F)ccc2OCCN1Cc1ncccc1F` [II-170, 7-(2-fluoro-4-(trifluoromethyl)phenyl)-4-((3-fluoropyridin-2-yl)methyl)-3,4-dihydrobenzo[f][1,4]oxazepin-5(2H)-one] were 66%, 36% and 31%.
Turning to `O=C(c1cc[nH]n1)N1CCOc2ccc(-c3ccc(OC(F)(F)F)cc3)cc2C1` [III-15, (1H-pyrazol-3-yl)(7-(4-(trifluoromethoxy)phenyl)-2,3-dihydrobenzo[f][1,4]oxazepin-4(5H)-yl)methanone], the inhibition at 1 µM was 50% in test [1], 19% in test [2] (setting [3]) and 18% in test [2] (setting [4]).
For the compound `Cn1ccnc1CN1CCOc2ccc(-c3ccc(OC(F)(F)F)cc3)cc2C1=O` [II-186, 4-((1-methyl-1H-imidazol-2-yl)methyl)-7-(4-(trifluoromethoxy)phenyl)-3,4-dihydrobenzo[f][1,4]oxazepin-5(2H)-one], the inhibition at 1 µM in test [1] is 55%; in test [2] (setting [3]) it was 20%; in test [2] (setting [4]), 30%.
Taken in the same sequence, the figures for `Cn1ccc(CN2CCOc3ccc(-c4ccc(OC(F)(F)F)cc4)cc3C2=O)n1` [II-64, 4-((1-methyl-1H-pyrazol-3-yl)methyl)-7-(4-(trifluoromethoxy)phenyl)-3,4-dihydrobenzo[f][1,4]oxazepin-5(2H)-one] were 55%, 12% and 19%.
